Format in all cases: physicochemical
Data set [1] is described as follows: Macroscopic observation of 1% oily dispersions in phenylethyl benzoate. The following applies: 1% by weight in phenylethyl benzoate (X-Tend 226), after about one week. The procedure: (§1) Two micronizations of these compounds 1 and 2 are performed by milling in oily medium (oil: phenylethyl benzoate—X-Tend 226 from ISP) by means of a mill without addition of dispersant, using a Dispermat ball mill.
(§2) • Dispermat AE 06-C1 disperser-mill (Brant Industrie) • Dispersion: slurries containing 17% R056336A and 49% F17845 (difference in oil uptake) ˜3000 rpm ˜15 minutes • Milling under rapid conditions (30 minutes at 4500 rpm), not optimized (water-cooling circuit not operational) with 0.7-1.2 mm […] balls.
Two oily dispersions in phenylethyl benzoate (X-Tend 226) comprising 1% by weight, respectively, of compound 1A or 2A are then prepared.

Data set [2] is described as follows: UV absorption of the derivatives in DMSO/ethanol. The following applies: for E1% / εmax: at the λmax of the same block.
Data set [3] can be described thus: Granulometric measurements by SLS (Mastersizer). The protocol: as §1, §2
The granulometric results obtained by SLS using a Mastersizer granulometer reveal a very marked difference in particle size between compound 1 and compound 2, with particle sizes d(0.5), respectively, of 0.118 μm as opposed to 851 μm.

Where “and” joins values, the source holds several entries; their conditions need not be identical. Identical values can stand only once.

In the case of `CC(C)(C)CC(C)(C)c1cc(Cc2cc(C(C)(C)CC(C)(C)C)cc(-n3nc4ccccc4n3)c2O)c(O)c(-n2nc3ccccc3n2)c1` [Compound 2, methylenebis(benzo-triazolyl)tetramethylbutylphenol], the “macroscopic stability of dispersion” value in data set [1] is “totally insoluble”.
Turning to `C[Si](C)(C)COC(=O)c1ccc(Nc2nc(Nc3ccc(C(=O)OC[Si](C)(C)C)cc3)nc(Nc3ccc(C(=O)OC[Si](C)(C)C)cc3)n2)cc1` [Example 1, 2,4,6-tris(methyltrimethyl-silyl 4′-aminobenzoate)-s-triazine], in data set [2], the λmax is on record as 314 nm, the E1% was found to be 1700 and the εmax was 126 660. For the same molecule, the “particle size d(0.5)” value in data set [3] (after milling in phenylethyl benzoate without dispersant, SLS Mastersizer) worked out at 0.118 μm. Further, in data set [3] (overall conclusion, compared with compound 2), the “dispersibility in the oil phenylethyl benzoate” value is “markedly superior dispersibility”.
For the molecule `CCCCOC(=O)c1ccc(Nc2nc(Nc3ccc(C(=O)OC[Si](C)(C)C)cc3)nc(Nc3ccc(C(=O)OC[Si](C)(C)C)cc3)n2)cc1` [Example 2, 2,4-bis(methyltrimethylsilyl 4′-aminobenzoate)-6-(butyl 4″-aminobenzoate)-s-triazine], in data set [2], the λmax worked out at 313 nm, the E1% is 1660 and the εmax is recorded as 104 560.
On to `C[Si](C)(C)COC(=O)c1ccc(Nc2nc(Nc3ccc(C(=O)OC[Si](C)(C)C)c(O)c3)nc(Nc3ccc(C(=O)OC[Si](C)(C)C)c(O)c3)n2)cc1O` [Example 3, 2,4,6-tris(methyltrimethyl-silyl 4′-aminosalicylate)-s-triazine], for which, in data set [2], the λmax is 326 nm and 300 nm; the E1% was 1456 and 938; the εmax was 107 610 and 74 400.
For `COc1ccc(-c2nc(Nc3ccc(C(=O)OC[Si](C)(C)C)cc3)nc(Nc3ccc(C(=O)OC[Si](C)(C)C)cc3)n2)cc1` [Example 4, 2,4-bis(methyltrimethylsilyl 4′-aminobenzoate)-6-(para-methoxyphenyl)-s-triazine], in data set [2], the λmax came out at 303 nm, the E1% is on record as 1313 and the εmax is 82 700.
For `COc1ccc(-c2nc(Nc3ccc(C(=O)OC[Si](C)(C)C)c(O)c3)nc(Nc3ccc(C(=O)OC[Si](C)(C)C)c(O)c3)n2)cc1` [Example 5, 2,4-bis(methyltrimethylsilyl 4′-aminosalicylate)-6-(para-methoxyphenyl)-s-triazine], in data set [2], the λmax was 329 nm and 316 nm and 298 nm; the E1% was 927 and 1066 and 1030; the εmax is 61 370 and 70 570 and 68 190.
For the molecule `CC12CCC(/C(=C\c3ccc(Nc4nc(Nc5ccc(C(=O)OC[Si](C)(C)C)cc5)nc(Nc5ccc(C(=O)OC[Si](C)(C)C)cc5)n4)cc3)C1=O)C2(C)C` (stereo not shown) [Example 6, 2,4-bis(methyltrimethylsilyl 4′-aminobenzoate)-6-(4″-aminobenzylidenecamphor)-s-triazine], in data set [2], the λmax was 313 nm and 345 nm.
As to `C[Si](C)(C)CNC(=O)c1ccc(Nc2nc(Nc3ccc(C(=O)NC[Si](C)(C)C)cc3)nc(Nc3ccc(C(=O)NC[Si](C)(C)C)cc3)n2)cc1` [Example 7, 2,4,6-tris(methyltrimethyl-silyl 4′-aminobenzamide)-s-triazine], in data set [2], the λmax was 303 nm, the E1% is reported as 1123 and the εmax is 83 330.

For the origin of these results see patent US20110097365A1, “S-TRIAZINE DERIVATIVES CONTAINING AT LEAST TWO PARTICULAR SILANE AMINOBENZOATE OR SILANE AMINOBENZAMIDE GROUPS; PHOTOPROTECTIVE COSMETIC COMPOSITIONS CONTAINING THESE DERIVATIVES; USES OF THE SAID S-TRIAZINE DERIVATIVES” (L'OREAL, priority 2007, published 2011).
